From EPA's ToxValDB 9.5 (doi:10.2903/j.efsa.2010.1565)
Values after ≈ are worked out from the molar mass of the structure shown.

Key:
[1] = test system: Canidae; conditions: chronic; duration: 1 years; oral; Dog Other; organ weight
[2] = test system: Colinus virginianus; conditions: acute; oral; mortality
[3] = test system: Typhlodromus pyri; conditions: not reported; other
[4] = test system: Oncorhynchus mykiss
[5] = test system: Tagia sp.
[6] = test system: Anas platyrhynchos
[7] = test system: Daphnia magna; conditions: chronic/long-term; duration: 21 days; reproduction
[8] = test system: Rattus norvegicus; conditions: oral

SMILES: CCN(CC)C(=O)C(C)Oc1cccc2ccccc12 (configuration not stated) [Napropamide]
- NOAEL [1]: 50 mg/kg-day
- LD50 [2]: > 2250 mg/kg
- LEL [3]: 4500 g/ha
- LC50 ([4]; acute, duration: 96 hours, mortality): 6.6 µg/mL (≈ 24.3 µM)
- NOEC ([4]; chronic/long-term, duration: 28 days, growth): 1.1 mg/L
- LC50 ([5]; acute, duration: 14 days, mortality): 564 mg/kg
- NOEC ([5]; chronic/long-term, reproduction): 60 mg/kg
- NOEL ([6]; reproductive, reproduction): 309 mg/kg-day
- LC50 ([6]; short-term, oral, feed, mortality): > 1570 mg/kg-day
- NOEC [7]: 4.3 mg/L
- LD50 ([8]; acute, mortality): 4680 mg/kg
- NOAEL ([8]; chronic, duration: 2 years, body weight): 30 mg/kg-day
